Assay results as given in US11697648B2, “Fused pyrimidine pyridinone compounds as JAK inhibitors” (THERAVANCE BIOPHARMA R&D IP, LLC, priority 2019, dated 2023).

These compounds were tested against JAK3 (Homo sapiens (Human), UniProt P52333) (assay: Biochemical JAK3 kinase assay (LanthaScreen)). Details: not given.
In short: (§1)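 GST-JAK + GFP-STAT1 peptide, HEPES pH 7.5/MgCl2/EGTA/Brij-35 buffer; cpd preincubation 1 h RT; ATP start, 1 h RT; stop with 10 mM EDTA + 2 nM Tb-anti-pSTAT1; TR-FRET 520/495. 4-parameter IC50 → pKi (Cheng-Prusoff).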

Sequence of JAK3 (P52333 whole entry): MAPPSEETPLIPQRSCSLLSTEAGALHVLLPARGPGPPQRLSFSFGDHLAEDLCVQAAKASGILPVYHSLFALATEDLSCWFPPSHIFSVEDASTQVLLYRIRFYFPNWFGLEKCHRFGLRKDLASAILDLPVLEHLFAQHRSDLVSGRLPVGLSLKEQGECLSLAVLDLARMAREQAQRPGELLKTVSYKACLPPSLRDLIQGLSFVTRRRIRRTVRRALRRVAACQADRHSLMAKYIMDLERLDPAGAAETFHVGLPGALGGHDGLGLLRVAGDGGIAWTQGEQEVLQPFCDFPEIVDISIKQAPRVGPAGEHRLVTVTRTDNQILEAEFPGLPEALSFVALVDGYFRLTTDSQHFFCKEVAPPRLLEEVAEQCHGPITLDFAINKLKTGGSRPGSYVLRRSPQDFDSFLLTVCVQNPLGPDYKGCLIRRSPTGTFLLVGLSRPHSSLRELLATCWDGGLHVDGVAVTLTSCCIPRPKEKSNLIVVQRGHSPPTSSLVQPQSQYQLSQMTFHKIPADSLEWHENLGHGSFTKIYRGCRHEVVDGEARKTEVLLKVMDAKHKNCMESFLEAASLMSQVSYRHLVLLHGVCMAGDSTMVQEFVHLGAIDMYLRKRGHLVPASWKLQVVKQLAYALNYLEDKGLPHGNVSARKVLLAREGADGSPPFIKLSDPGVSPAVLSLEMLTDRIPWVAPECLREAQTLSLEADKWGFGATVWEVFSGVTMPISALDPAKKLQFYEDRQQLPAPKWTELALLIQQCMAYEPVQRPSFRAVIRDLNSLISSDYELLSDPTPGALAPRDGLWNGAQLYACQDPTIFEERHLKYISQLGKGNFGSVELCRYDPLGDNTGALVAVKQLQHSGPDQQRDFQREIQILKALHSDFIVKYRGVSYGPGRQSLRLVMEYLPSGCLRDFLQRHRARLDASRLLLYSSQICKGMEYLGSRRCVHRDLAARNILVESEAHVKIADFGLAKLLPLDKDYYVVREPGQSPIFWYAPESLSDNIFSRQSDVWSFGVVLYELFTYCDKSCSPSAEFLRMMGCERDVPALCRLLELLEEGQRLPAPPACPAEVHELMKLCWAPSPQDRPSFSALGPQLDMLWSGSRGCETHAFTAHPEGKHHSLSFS

**Q.** How did the “JAK 3 (pKi)” value turn out when `C=CC(=O)N1CCN(CCn2c(=O)ccc3cnc(Nc4ccc(N5CCN(C)CC5)cc4)nc32)[C@@H](C)C1` [Example 160] was run?
**A.** B (B represents pKi value between 9 and 10 (Ki between 1 nM and 0.1 nM))

**Q.** `C=CC(=O)N1CC(C)(CCn2c(=O)ccc3cnc(Nc4ccc(N5CCN(C(C)=O)CC5)cc4)nc32)C1` [Example 161] was tested. Which “JAK 3 (pKi)” value did it give?
**A.** B (B represents pKi value between 9 and 10 (Ki between 1 nM and 0.1 nM))

**Q.** Which “JAK 3 (pKi)” value does the source give for `C=CC(=O)N1CC(CCn2c(=O)ccc3cnc(Nc4ccc(N5CCN(C)C[C@@H]5C)cc4)nc32)C1` [Example 163] here?
**A.** B (B represents pKi value between 9 and 10 (Ki between 1 nM and 0.1 nM))

**Q.** Which “JAK 3 (pKi)” value does the source give for `C=CC(=O)N1CCN(C(C)(C)Cn2c(=O)ccc3cnc(Nc4ccc(N5CCN(C)CC5)cc4)nc32)CC1` [Example 164] here?
**A.** B (B represents pKi value between 9 and 10 (Ki between 1 nM and 0.1 nM))

**Q.** With `C=CC(=O)N1CC(CCn2c(=O)ccc3cnc(Nc4ccc(N5CCN(C)[C@@H](C)C5)cc4)nc32)C1` [Example 165] as the compound, how does the “JAK 3 (pKi)” value read?
**A.** A (A represents a pKi value≥10 (Ki≤0.1 nM))

**Q.** For `C=CC(=O)N1CC(CCn2c(=O)ccc3cnc(Nc4ccc(N5CCN(C)CC5)c(C)c4)nc32)C1` [Example 166], which “JAK 3 (pKi)” value is on record?
**A.** A (A represents a pKi value≥10 (Ki≤0.1 nM))

**Q.** With `C=CC(=O)N1CC(CCn2c(=O)ccc3cnc(Nc4ccc(N5CCN(C(C)=O)C[C@@H]5C)cc4)nc32)C1` [Example 168] as the compound, how does the “JAK 3 (pKi)” value read?
**A.** A (A represents a pKi value≥10 (Ki≤0.1 nM))

Same assay, conditions: selectivity JAK3 over JAK1, difference of pKi

**Q.** `C=CC(=O)N1CCN(CCn2c(=O)ccc3cnc(Nc4ccc(N5CCN(C)CC5)cc4)nc32)[C@@H](C)C1` [Example 160] was tested. Which “JAK3 (pKi)-JAK1 (pKi)” value did it give?
**A.** A (A represents a value of 3 or above)

**Q.** `C=CC(=O)N1CC(C)(CCn2c(=O)ccc3cnc(Nc4ccc(N5CCN(C(C)=O)CC5)cc4)nc32)C1` [Example 161] was tested. Which “JAK3 (pKi)-JAK1 (pKi)” value did it give?
**A.** A (A represents a value of 3 or above)

**Q.** Which “JAK3 (pKi)-JAK1 (pKi)” value does the source give for `C=CC(=O)N1CC(CCn2c(=O)ccc3cnc(Nc4ccc(N5CCN(C)C[C@@H]5C)cc4)nc32)C1` [Example 163] here?
**A.** A (A represents a value of 3 or above)

**Q.** `C=CC(=O)N1CCN(C(C)(C)Cn2c(=O)ccc3cnc(Nc4ccc(N5CCN(C)CC5)cc4)nc32)CC1` [Example 164] was tested. Which “JAK3 (pKi)-JAK1 (pKi)” value did it give?
**A.** A (A represents a value of 3 or above)

**Q.** With `C=CC(=O)N1CC(CCn2c(=O)ccc3cnc(Nc4ccc(N5CCN(C)[C@@H](C)C5)cc4)nc32)C1` [Example 165] as the compound, how does the “JAK3 (pKi)-JAK1 (pKi)” value read?
**A.** A (A represents a value of 3 or above)

**Q.** `C=CC(=O)N1CC(CCn2c(=O)ccc3cnc(Nc4ccc(N5CCN(C)CC5)c(C)c4)nc32)C1` [Example 166] was tested. Which “JAK3 (pKi)-JAK1 (pKi)” value did it give?
**A.** A (A represents a value of 3 or above)

**Q.** With `C=CC(=O)N1CC(CCn2c(=O)ccc3cnc(Nc4ccc(N5CCN(C(C)=O)C[C@@H]5C)cc4)nc32)C1` [Example 168] as the compound, how does the “JAK3 (pKi)-JAK1 (pKi)” value read?
**A.** A (A represents a value of 3 or above)

The compounds below were run against JAK1 (Homo sapiens (Human), UniProt P23458) (assay: Biochemical JAK1 kinase assay (LanthaScreen)). Details: not given.
Sequence of JAK1 (P23458 whole entry): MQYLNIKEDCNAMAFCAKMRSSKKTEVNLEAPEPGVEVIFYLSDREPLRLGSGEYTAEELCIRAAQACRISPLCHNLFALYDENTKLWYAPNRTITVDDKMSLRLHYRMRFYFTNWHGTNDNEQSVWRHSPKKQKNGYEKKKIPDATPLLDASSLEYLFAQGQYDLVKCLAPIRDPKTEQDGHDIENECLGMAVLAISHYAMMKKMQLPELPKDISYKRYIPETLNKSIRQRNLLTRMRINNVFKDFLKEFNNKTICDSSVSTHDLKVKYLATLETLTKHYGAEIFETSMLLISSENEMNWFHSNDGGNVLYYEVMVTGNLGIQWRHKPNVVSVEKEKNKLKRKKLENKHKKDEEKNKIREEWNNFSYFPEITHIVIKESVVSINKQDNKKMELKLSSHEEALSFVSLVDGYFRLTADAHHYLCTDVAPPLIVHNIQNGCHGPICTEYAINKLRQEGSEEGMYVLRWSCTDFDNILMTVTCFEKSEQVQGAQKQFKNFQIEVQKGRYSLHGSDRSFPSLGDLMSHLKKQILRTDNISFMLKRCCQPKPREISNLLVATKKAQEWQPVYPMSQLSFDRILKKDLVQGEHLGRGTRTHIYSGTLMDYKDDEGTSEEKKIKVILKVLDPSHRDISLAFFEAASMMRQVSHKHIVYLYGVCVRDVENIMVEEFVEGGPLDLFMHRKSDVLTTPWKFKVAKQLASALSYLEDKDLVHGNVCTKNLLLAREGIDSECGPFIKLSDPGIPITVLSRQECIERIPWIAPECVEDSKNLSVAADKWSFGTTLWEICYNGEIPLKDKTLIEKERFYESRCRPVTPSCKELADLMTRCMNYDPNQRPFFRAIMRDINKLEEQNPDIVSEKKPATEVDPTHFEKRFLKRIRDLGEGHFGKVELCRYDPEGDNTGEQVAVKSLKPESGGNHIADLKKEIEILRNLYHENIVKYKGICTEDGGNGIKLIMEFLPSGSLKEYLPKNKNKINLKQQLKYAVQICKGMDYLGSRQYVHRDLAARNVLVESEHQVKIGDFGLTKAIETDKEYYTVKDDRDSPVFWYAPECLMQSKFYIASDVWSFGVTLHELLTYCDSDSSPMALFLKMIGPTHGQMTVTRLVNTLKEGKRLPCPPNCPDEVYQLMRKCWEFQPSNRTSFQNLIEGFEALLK
In short: as §1

**Q.** For `C=CC(=O)N1CCN(CCn2c(=O)ccc3cnc(Nc4ccc(N5CCN(C)CC5)cc4)nc32)[C@@H](C)C1` [Example 160], which “JAK 1 (pKi)” value is on record?
**A.** E (E represents a pKi value of 7 or below (Ki of 100 nM or above))

**Q.** `C=CC(=O)N1CC(C)(CCn2c(=O)ccc3cnc(Nc4ccc(N5CCN(C(C)=O)CC5)cc4)nc32)C1` [Example 161] was tested. Which “JAK 1 (pKi)” value did it give?
**A.** E (E represents a pKi value of 7 or below (Ki of 100 nM or above))

**Q.** Which “JAK 1 (pKi)” value does the source give for `C=CC(=O)N1CC(CCn2c(=O)ccc3cnc(Nc4ccc(N5CCN(C)C[C@@H]5C)cc4)nc32)C1` [Example 163] here?
**A.** E (E represents a pKi value of 7 or below (Ki of 100 nM or above))

**Q.** How did the “JAK 1 (pKi)” value turn out when `C=CC(=O)N1CCN(C(C)(C)Cn2c(=O)ccc3cnc(Nc4ccc(N5CCN(C)CC5)cc4)nc32)CC1` [Example 164] was run?
**A.** E (E represents a pKi value of 7 or below (Ki of 100 nM or above))

**Q.** `C=CC(=O)N1CC(CCn2c(=O)ccc3cnc(Nc4ccc(N5CCN(C)[C@@H](C)C5)cc4)nc32)C1` [Example 165] was tested. Which “JAK 1 (pKi)” value did it give?
**A.** E (E represents a pKi value of 7 or below (Ki of 100 nM or above))

**Q.** Which “JAK 1 (pKi)” value does the source give for `C=CC(=O)N1CC(CCn2c(=O)ccc3cnc(Nc4ccc(N5CCN(C)CC5)c(C)c4)nc32)C1` [Example 166] here?
**A.** E (E represents a pKi value of 7 or below (Ki of 100 nM or above))

**Q.** With `C=CC(=O)N1CC(CCn2c(=O)ccc3cnc(Nc4ccc(N5CCN(C(C)=O)C[C@@H]5C)cc4)nc32)C1` [Example 168] as the compound, how does the “JAK 1 (pKi)” value read?
**A.** E (E represents a pKi value of 7 or below (Ki of 100 nM or above))

The compounds below were run against JAK2 (Homo sapiens (Human), UniProt O60674) (assay: Biochemical JAK2 kinase assay (LanthaScreen)). Details: not given.
Sequence of JAK2 (O60674 whole entry): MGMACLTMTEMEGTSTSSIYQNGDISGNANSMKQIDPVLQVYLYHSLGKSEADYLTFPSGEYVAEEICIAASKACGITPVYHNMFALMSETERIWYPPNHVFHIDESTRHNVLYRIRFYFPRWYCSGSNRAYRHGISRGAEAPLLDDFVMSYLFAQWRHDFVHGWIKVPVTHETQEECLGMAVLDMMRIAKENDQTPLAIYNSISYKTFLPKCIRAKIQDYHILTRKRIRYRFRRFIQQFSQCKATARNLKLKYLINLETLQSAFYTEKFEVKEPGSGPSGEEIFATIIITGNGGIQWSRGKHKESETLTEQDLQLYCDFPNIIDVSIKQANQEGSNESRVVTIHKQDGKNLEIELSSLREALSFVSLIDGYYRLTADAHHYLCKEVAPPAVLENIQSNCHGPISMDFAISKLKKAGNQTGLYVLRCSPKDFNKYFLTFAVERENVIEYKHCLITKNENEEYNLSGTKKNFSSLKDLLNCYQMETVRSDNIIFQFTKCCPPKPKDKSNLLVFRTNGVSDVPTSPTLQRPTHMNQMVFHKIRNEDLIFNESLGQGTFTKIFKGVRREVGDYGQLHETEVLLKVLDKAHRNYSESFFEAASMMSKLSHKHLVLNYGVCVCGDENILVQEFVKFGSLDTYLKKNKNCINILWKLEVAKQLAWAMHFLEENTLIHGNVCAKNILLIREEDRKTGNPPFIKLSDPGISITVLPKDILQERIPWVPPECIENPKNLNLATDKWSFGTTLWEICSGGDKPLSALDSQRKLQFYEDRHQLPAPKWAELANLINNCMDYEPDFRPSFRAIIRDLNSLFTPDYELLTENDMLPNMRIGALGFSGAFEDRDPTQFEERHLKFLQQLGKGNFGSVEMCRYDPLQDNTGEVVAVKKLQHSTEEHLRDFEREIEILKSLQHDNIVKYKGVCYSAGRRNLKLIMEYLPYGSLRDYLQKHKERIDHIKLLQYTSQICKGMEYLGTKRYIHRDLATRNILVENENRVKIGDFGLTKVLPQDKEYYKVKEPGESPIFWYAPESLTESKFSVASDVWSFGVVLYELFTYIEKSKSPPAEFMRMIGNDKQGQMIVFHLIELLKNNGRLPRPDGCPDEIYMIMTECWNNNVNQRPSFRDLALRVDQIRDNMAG
In short: as §1

**Q.** `C=CC(=O)N1CCN(CCn2c(=O)ccc3cnc(Nc4ccc(N5CCN(C)CC5)cc4)nc32)[C@@H](C)C1` [Example 160] was tested. Which “JAK 2 (pKi)” value did it give?
**A.** E (E represents a pKi value of 7 or below (Ki of 100 nM or above))

**Q.** For `C=CC(=O)N1CC(C)(CCn2c(=O)ccc3cnc(Nc4ccc(N5CCN(C(C)=O)CC5)cc4)nc32)C1` [Example 161], which “JAK 2 (pKi)” value is on record?
**A.** E (E represents a pKi value of 7 or below (Ki of 100 nM or above))

**Q.** For `C=CC(=O)N1CC(CCn2c(=O)ccc3cnc(Nc4ccc(N5CCN(C)C[C@@H]5C)cc4)nc32)C1` [Example 163], which “JAK 2 (pKi)” value is on record?
**A.** E (E represents a pKi value of 7 or below (Ki of 100 nM or above))

**Q.** `C=CC(=O)N1CCN(C(C)(C)Cn2c(=O)ccc3cnc(Nc4ccc(N5CCN(C)CC5)cc4)nc32)CC1` [Example 164] was tested. Which “JAK 2 (pKi)” value did it give?
**A.** E (E represents a pKi value of 7 or below (Ki of 100 nM or above))

**Q.** With `C=CC(=O)N1CC(CCn2c(=O)ccc3cnc(Nc4ccc(N5CCN(C)[C@@H](C)C5)cc4)nc32)C1` [Example 165] as the compound, how does the “JAK 2 (pKi)” value read?
**A.** E (E represents a pKi value of 7 or below (Ki of 100 nM or above))

**Q.** Which “JAK 2 (pKi)” value does the source give for `C=CC(=O)N1CC(CCn2c(=O)ccc3cnc(Nc4ccc(N5CCN(C)CC5)c(C)c4)nc32)C1` [Example 166] here?
**A.** E (E represents a pKi value of 7 or below (Ki of 100 nM or above))

**Q.** How did the “JAK 2 (pKi)” value turn out when `C=CC(=O)N1CC(CCn2c(=O)ccc3cnc(Nc4ccc(N5CCN(C(C)=O)C[C@@H]5C)cc4)nc32)C1` [Example 168] was run?
**A.** E (E represents a pKi value of 7 or below (Ki of 100 nM or above))

These compounds were tested on IL-2 stimulated STAT5 phosphorylation in Tall-1 human T cell line (JAK3) (assay: Cellular JAK3 potency assay: inhibition of IL-2 stimulated pSTAT5 in Tall-1 T cells). Details: IL-2 stimulated pSTAT5, Tall-1 T cells.
Type: cell-based
In short: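 AlphaLISA SureFire Ultra measures STAT5 Tyr694/699 phosphorylation in lysed Tall-1 human T cells. Cells were exposed to compound for 1 h at 37 °C before a 30 min IL-2 challenge (300 ng/ml final). Values are pIC50 means with standard deviation from signal-versus-concentration curves.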

**Q.** For `C=CC(=O)N1CCN(CCn2c(=O)ccc3cnc(Nc4ccc(N5CCN(C)CC5)cc4)nc32)[C@@H](C)C1` [Example 160], which “Tall-1 (pIC50)” value is on record?
**A.** A (A represents a pIC50 value≥7.5 (IC50≤32 nM))

**Q.** `C=CC(=O)N1CC(C)(CCn2c(=O)ccc3cnc(Nc4ccc(N5CCN(C(C)=O)CC5)cc4)nc32)C1` [Example 161] was tested. Which “Tall-1 (pIC50)” value did it give?
**A.** A (A represents a pIC50 value≥7.5 (IC50≤32 nM))

**Q.** Which “Tall-1 (pIC50)” value does the source give for `C=CC(=O)N1CC(CCn2c(=O)ccc3cnc(Nc4ccc(N5CCN(C)C[C@@H]5C)cc4)nc32)C1` [Example 163] here?
**A.** A (A represents a pIC50 value≥7.5 (IC50≤32 nM))

**Q.** Which “Tall-1 (pIC50)” value does the source give for `C=CC(=O)N1CCN(C(C)(C)Cn2c(=O)ccc3cnc(Nc4ccc(N5CCN(C)CC5)cc4)nc32)CC1` [Example 164] here?
**A.** C (C represents a pIC50 value between 6 and 6.7 (IC50 between 1 μM and 200 nM))

**Q.** `C=CC(=O)N1CC(CCn2c(=O)ccc3cnc(Nc4ccc(N5CCN(C)[C@@H](C)C5)cc4)nc32)C1` [Example 165] was tested. Which “Tall-1 (pIC50)” value did it give?
**A.** A (A represents a pIC50 value≥7.5 (IC50≤32 nM))

**Q.** For `C=CC(=O)N1CC(CCn2c(=O)ccc3cnc(Nc4ccc(N5CCN(C)CC5)c(C)c4)nc32)C1` [Example 166], which “Tall-1 (pIC50)” value is on record?
**A.** A (A represents a pIC50 value≥7.5 (IC50≤32 nM))

**Q.** Which “Tall-1 (pIC50)” value does the source give for `C=CC(=O)N1CC(CCn2c(=O)ccc3cnc(Nc4ccc(N5CCN(C(C)=O)C[C@@H]5C)cc4)nc32)C1` [Example 168] here?
**A.** A (A represents a pIC50 value≥7.5 (IC50≤32 nM))

What follows are compounds tested against Tyk2 (Homo sapiens (Human), UniProt P29597) (assay: Biochemical Tyk2 kinase assay (LanthaScreen)). Details: not given.
Sequence of Tyk2 (P29597 whole entry): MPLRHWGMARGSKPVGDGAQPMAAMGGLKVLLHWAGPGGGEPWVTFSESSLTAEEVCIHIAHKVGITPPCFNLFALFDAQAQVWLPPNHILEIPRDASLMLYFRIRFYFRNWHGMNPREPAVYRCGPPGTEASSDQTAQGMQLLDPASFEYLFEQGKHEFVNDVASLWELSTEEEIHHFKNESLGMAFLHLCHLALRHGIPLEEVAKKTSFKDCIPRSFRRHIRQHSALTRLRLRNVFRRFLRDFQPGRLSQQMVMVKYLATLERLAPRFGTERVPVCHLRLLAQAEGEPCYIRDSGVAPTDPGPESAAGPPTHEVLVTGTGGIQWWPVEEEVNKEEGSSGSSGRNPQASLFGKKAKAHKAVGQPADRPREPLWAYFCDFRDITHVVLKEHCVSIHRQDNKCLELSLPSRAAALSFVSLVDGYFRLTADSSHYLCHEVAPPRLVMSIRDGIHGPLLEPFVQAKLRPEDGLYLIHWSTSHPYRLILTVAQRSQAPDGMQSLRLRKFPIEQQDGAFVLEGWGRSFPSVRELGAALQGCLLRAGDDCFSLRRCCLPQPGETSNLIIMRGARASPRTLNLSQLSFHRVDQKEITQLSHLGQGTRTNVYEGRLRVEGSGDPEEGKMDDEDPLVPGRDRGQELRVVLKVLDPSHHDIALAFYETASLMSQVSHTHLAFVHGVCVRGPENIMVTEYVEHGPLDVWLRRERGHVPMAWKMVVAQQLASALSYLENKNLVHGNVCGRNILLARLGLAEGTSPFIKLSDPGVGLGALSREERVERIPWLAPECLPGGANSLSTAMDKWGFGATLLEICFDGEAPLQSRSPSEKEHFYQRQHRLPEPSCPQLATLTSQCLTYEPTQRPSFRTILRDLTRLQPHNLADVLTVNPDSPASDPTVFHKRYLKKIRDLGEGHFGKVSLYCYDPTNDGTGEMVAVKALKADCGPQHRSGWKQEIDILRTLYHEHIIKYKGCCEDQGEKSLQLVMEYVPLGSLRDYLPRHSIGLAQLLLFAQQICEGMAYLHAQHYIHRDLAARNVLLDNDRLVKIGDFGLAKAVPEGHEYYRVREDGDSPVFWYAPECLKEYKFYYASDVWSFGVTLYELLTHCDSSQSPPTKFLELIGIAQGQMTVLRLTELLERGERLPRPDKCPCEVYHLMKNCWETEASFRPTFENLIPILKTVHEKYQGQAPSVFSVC
In short: as §1

**Q.** `C=CC(=O)N1CCN(CCn2c(=O)ccc3cnc(Nc4ccc(N5CCN(C)CC5)cc4)nc32)[C@@H](C)C1` [Example 160] was tested. Which “Tyk 2 (pKi)” value did it give?
**A.** E (E represents a pKi value of 7 or below (Ki of 100 nM or above))

**Q.** With `C=CC(=O)N1CC(C)(CCn2c(=O)ccc3cnc(Nc4ccc(N5CCN(C(C)=O)CC5)cc4)nc32)C1` [Example 161] as the compound, how does the “Tyk 2 (pKi)” value read?
**A.** E (E represents a pKi value of 7 or below (Ki of 100 nM or above))

**Q.** For `C=CC(=O)N1CC(CCn2c(=O)ccc3cnc(Nc4ccc(N5CCN(C)C[C@@H]5C)cc4)nc32)C1` [Example 163], which “Tyk 2 (pKi)” value is on record?
**A.** E (E represents a pKi value of 7 or below (Ki of 100 nM or above))

**Q.** `C=CC(=O)N1CCN(C(C)(C)Cn2c(=O)ccc3cnc(Nc4ccc(N5CCN(C)CC5)cc4)nc32)CC1` [Example 164] was tested. Which “Tyk 2 (pKi)” value did it give?
**A.** E (E represents a pKi value of 7 or below (Ki of 100 nM or above))

**Q.** `C=CC(=O)N1CC(CCn2c(=O)ccc3cnc(Nc4ccc(N5CCN(C)[C@@H](C)C5)cc4)nc32)C1` [Example 165] was tested. Which “Tyk 2 (pKi)” value did it give?
**A.** E (E represents a pKi value of 7 or below (Ki of 100 nM or above))

**Q.** With `C=CC(=O)N1CC(CCn2c(=O)ccc3cnc(Nc4ccc(N5CCN(C)CC5)c(C)c4)nc32)C1` [Example 166] as the compound, how does the “Tyk 2 (pKi)” value read?
**A.** E (E represents a pKi value of 7 or below (Ki of 100 nM or above))

**Q.** `C=CC(=O)N1CC(CCn2c(=O)ccc3cnc(Nc4ccc(N5CCN(C(C)=O)C[C@@H]5C)cc4)nc32)C1` [Example 168] was tested. Which “Tyk 2 (pKi)” value did it give?
**A.** E (E represents a pKi value of 7 or below (Ki of 100 nM or above))
